Measured values: US12065485B2, “Treatment of staphylococcal disorders” (priority 2013, dated 2024)
Counter-ions that a name gives are not always drawn. Ends that are not written are not given here. Peptide text beside a SMILES is read from it. * marks the point of attachment. For = O=C*

Experiments:
MC/9 cells = test: Viability of MCs after stimulation with synthetic PSMs (LDH release); details: synthetic peptides
Description: (a) % LDH released from MC/9 cells stimulated by medium alone (Ctrl) and indicated concentrations (μg ml^−1) of PSMs for 15 or 60 minutes. […] Data represent means±s.d. of triplicate cultures. Data are representative of three independent experiments.
Because δ-toxin is highly related to PSMα2 and PSMα3, the viability of MCs after stimulation with synthetic PSMα2, PSMα3, or δ-toxin, was assessed.

[1] = tested on: primary mouse macrophages and keratinocytes; test: Cell toxicity by LDH assay in primary mouse macrophages and keratinocytes
Description: Cell toxicity of δ-toxin. BMCMCs, BMMφ (bone marrow derived macrophages), bone marrow neutrophils and primary keratinocytes isolated from mice were stimulated with PSMα (10 μg ml−1) or δ-toxin (10 or 100 μg ml−1) for indicated times. Cell toxicity was measured by LDH assay. Data represent means±s.d. of triplicate cultures. NS; not significant, ***P<0.001, one-way ANOVA with Tukey's post-hoc test for multiple comparisons. Data are representative of two independent experiments.

[2] = tested on: MCs (FSMCs, BMCMCs, MC/9 cells); format: cell-based, mouse; details: in vitro; for effect on MC degranulation induced by δ-toxin: pre-treatment before δ-toxin stimulation
Description: Preparations of BMCMCs and fetal skin-derived mast cells (FSMCs) were previously described in Yamada, et al., J Invest Dermatol 121, 1425-1432 (2003). The purity of MCs was confirmed by surface expression of CD45 and CD117 (eBioscience).
Degranulation of MCs was assessed by β-hexosaminidase assay as previously described in Yamada, et al., J Invest Dermatol 121, 1425-1432, (2003). Briefly, MCs (2×10^6 m^−1) were preloaded with or without anti-DNP IgE (0.3 μg ml^−1) in RPMI with IL-3 for 15 hours. The cells were resuspended in Tyrode's buffer (Sigma) at 2×10^4 cells per 100 μl for FSMCs or 1×10^5 cells per 100 μl for BMCMCs and MC/9 cells, aliquoted in triplicate into a 96-well U-bottom plate and incubated with EGTA (1 mM, Sigma), LY294002 (100 μM, Sigma) and WRW4 (Trp-Arg-Trp-Trp-Trp-Trp-CONH2 (SEQ ID NO: […], American peptide) and Cyclosporine H (10 μM, Alexis Biochemicals) for 30 min, and then stimulated with DNP-HSA (30 ng ml^−1) TNP-HSA (30 nM) for 30 min, followed by exposure to Ionomycin (1 μM, Sigma) δ-toxin (indicated concentrations), PSMαs (indicated concentrations) or FPR2 ligands for 15 min. Results of various stimuli are given as a relative percentage, where freeze and thaw of total cell culture represents 100%.

FSMCs = format: cell-based, mouse
Description: In brief, FSMCs (2×10^6 m^−1) were preloaded with or without anti-DNP-IgE (0.3 g ml^−1) in RPMI with IL-3 for 15 hours. Cells were washed and loaded with Fluo-4AM (5 μM, Life Technologies) for 30 minutes. Cells were washed again and further incubated in Tyrode's buffer with or without EGTA (1 mM) for 30 minutes. DNP-HSA (30 ng ml^−1), Ionomycin (1 μM) or δ-toxin (30 μg ml^−1) were used to induce calcium flux in these cells.

MC degranulation in vivo = test: Passive cutaneous anaphylaxis (PCA) assay, Evans blue leakage in ear skin; details: mice pretreated with WRW4, then S. aureus culture supernatant intradermally
Description: To assess whether δ-toxin induces MC degranulation in vivo, synthetic δ-toxin was injected into the skin of mouse ears and MC degranulation was monitored by the vascular leakage of Evan's blue dye into the extravascular space using the passive cutaneous anaphylaxis (PCA) assay.
Four to six weeks later, the mice were subjected to experimental PCA or epicutaneous S. aureus sensitization. […] PCA assay was performed as described, with minor modifications. […] After inoculation, 0.1 ml of 5 mg ml −1 Evans blue dye was injected intravenously. Extravasation of Evans blue dye was monitored for 30 minutes, and 4 mm of punched-out biopsies were incubated at 63° C. overnight in 200 μl formamide. Quantitative analysis of extracts was determined by measuring the absorbance at 600 nm.

[3] = tested on: P3 promoter (RNAIII / delta-toxin expression); test: USA300-P3-Luc reporter screen for inhibition of RNAIII induction (P3 promoter activation by AIP); format: cell-based, Staphylococcus aureus; details: Staphylococcus aureus; 40 μM compound, 2 hours at 37° C., luminescence; relative to positive control (USA300 inhibitory AIP supernatant); read-out: % Inhibition
Description: Staphylococcus aureus pulse-field gel electrophoresis (PFGE) type USA300 transformed with a plasmid containing the P3 promoter followed by the luciferase gene (USA300-P3-Luc) was grown in tryptic soy broth (TSB) to […] (5×10^8 CFU/mL), as determined by optical density at 600 nm, from overnight cultured bacteria and harvested via centrifugation (4,000×g, 4° C., 5 minutes). Supernatant was removed and the bacterial pellet was washed twice with an equal volume of PBS. Bacteria were suspended in PBS at 5×10^8 CFU/mL, as confirmed by plating serial dilutions onto TSB. 2×10^6 CFU washed USA300-P3-Luc was incubated with wt USA300 8-hour filtered supernatant containing stimulatory auto-inducing peptide (AIP) at a final dilution of 1:10 and 40 μM each compound in a total of 40 μL/well of TSB on a 384-well plate. The S. aureus two-component agr system induces delta-toxin expression via expression of AIP at stationary growth phase and was used to stimulate activation of the P3 promoter. Alternatively, AIP produced by a different S. aureus strain, PFGE type USA400, acts to inhibit delta-toxin expression in USA300. As a positive control, samples were incubated with USA400 8-hour filtered supernatant containing inhibitory AIP at a final dilution of 1:10 instead of test compound. Samples were incubated at 37° C. for 2 hours, then analyzed for luminescence and optical density at 600 nm. Percent Inhibition was determined by the following formula: Percent inhibition=100×(LumNo Inhibitor−Lumcompound)/(LumNo Inhibitor.−LumPositive control). Inhibitory compounds suitable for use in methods of inhibiting skin inflammation according to the disclosure were identified (Table 2) based on at least a 40% inhibition relative to the positive control, minimal reduction in growth as determined by optical density at 600 nm, and relatively low promiscuity (<10%) in relation to other high-throughput assays performed using these compounds.

Q: How did the “cell viability / cell death in MCs” value (MC/9 cells) turn out when `CC[C@H](C)[C@H](NC(=O)CNC(=O)[C@H](CCSC)NC=O)C(=O)N[C@H](C(=O)N[C@@H](C)C(=O)NCC(=O)N[C@H](C(=O)N[C@H](C(=O)N[C@@H](CCCCN)C(=O)N[C@@H](Cc1ccccc1)C(=O)N[C@H](C(=O)N[C@@H](CCCCN)C(=O)NCC(=O)N[C@@H](CC(C)C)C(=O)N[C@H](C(=O)N[C@@H](CCC(=O)O)C(=O)N[C@@H](CCCCN)C(=O)N[C@@H](Cc1ccccc1)C(=O)N[C@H](C(=O)NCC(=O)N[C@@H](CCCCN)C(=O)O)[C@@H](C)O)[C@@H](C)CC)[C@@H](C)CC)[C@@H](C)CC)[C@@H](C)CC)[C@@H](C)CC` [PSMα3] was run?
A: induced robust loss of cell viability

Q: Which cell death [1] does the source give for `CC[C@H](C)[C@H](NC(=O)CNC(=O)[C@H](CCSC)NC=O)C(=O)N[C@H](C(=O)N[C@@H](C)C(=O)NCC(=O)N[C@H](C(=O)N[C@H](C(=O)N[C@@H](CCCCN)C(=O)N[C@H](C(=O)N[C@H](C(=O)N[C@@H](CCCCN)C(=O)N[C@@H](CO)C(=O)N[C@@H](CC(C)C)C(=O)N[C@H](C(=O)N[C@@H](CCC(=O)O)C(=O)N[C@@H](CCC(N)=O)C(=O)N[C@@H](Cc1ccccc1)C(=O)N[C@H](C(=O)NCC(=O)N[C@@H](CCCCN)C(=O)O)[C@@H](C)O)[C@@H](C)CC)[C@@H](C)CC)C(C)C)[C@@H](C)CC)[C@@H](C)CC)[C@@H](C)CC` [PSMα2] (For-MGIIAGIIKVIKSLIEQFTGK-OH) here?
A: triggered robust cell death

Q: What about the “cell viability / cell death in MCs” value (MC/9 cells) of the same compound?
A: induced robust loss of cell viability

Q: With `O=C(O)CN(CCOCCOCCN(CC(=O)O)CC(=O)O)CC(=O)O` [EGTA, ethylene glycol tetraacetic acid] as the compound, how does the “effect on MC degranulation induced by δ-toxin” value [2] read?
A: blocked MC degranulation

Q: What about the “effect on δ-toxin-triggered Ca2+ influx” value (FSMCs; EGTA 1 mM) of the same compound?
A: abrogated

Q: For `C[C@H](CCC(=O)O)C[C@H](C)C[C@H](C)C(=O)/C=C(\O)[C@H](C)C[C@H](C)C/C=C/[C@@H](C)[C@@H](O)[C@@H](C)[C@@H](O)C[C@@H]1CC[C@@](C)([C@H]2CC[C@@](C)([C@@H](C)O)O2)O1` [ionomycin], which “induction of Ca2+ influx” value (FSMCs) is on record?
A: induced rapid Ca 2+ influx

Q: For `CC[C@H](C)[C@H](NC(=O)[C@H](Cc1c[nH]c2ccccc12)NC(=O)[C@H](CCCCN)NC(=O)[C@@H](NC(=O)[C@H](CC(C)C)NC(=O)[C@H](CC(=O)O)NC(=O)CNC(=O)[C@@H](NC(=O)[C@@H](NC(=O)[C@H](CO)NC(=O)[C@@H](NC(=O)[C@@H](NC(=O)[C@H](CC(=O)O)NC(=O)[C@H](CCC(N)=O)NC(=O)[C@H](C)NC(=O)[C@@H](N)CCSC)[C@@H](C)CC)[C@@H](C)CC)[C@@H](C)O)[C@@H](C)CC)C(C)C)C(=O)N[C@H](C(=O)N[C@@H](CC(=O)O)C(=O)N[C@H](C(=O)N[C@H](C(=O)N[C@@H](CC(N)=O)C(=O)N[C@@H](CCCCN)C(=O)N[C@@H](Cc1ccccc1)C(=O)N[C@H](C(=O)N[C@@H](CCCCN)C(=O)N[C@@H](CCCCN)C(=O)O)[C@@H](C)O)C(C)C)[C@@H](C)O)[C@@H](C)CC` [δ-toxin], which “cell viability / cell death in MCs” value (MC/9 cells) is on record?
A: did not induce detectable cell death

Q: With pertussis toxin as the compound, how does the “effect on MC degranulation induced by δ-toxin” value [2] read?
A: partially reduced

Q: Which “induction of MC degranulation” value [2] does the source give for `CCCCC[C@H](O)/C=C/C=C\C=C\C=C\[C@@H](O)[C@@H](O)CCCC(=O)O` [Lipoxin A4] here?
A: did not induce mouse MC degranulation

Q: LESIFRSLLFRVM [MMK1, human FPR2 ligand] was tested. Which “induction of MC degranulation” value [2] did it give?
A: did not induce mouse MC degranulation

Q: “Trp-Arg-Trp-Trp-Trp-Trp-CONH2 (WRWWWW-NH2) [WRW4]” was tested. Which “effect on MC degranulation induced by δ-toxin” value [2] did it give?
A: inhibited MC degranulation

Q: What about the “effect on MC degranulation induced by δ-toxin in vivo” value (MC degranulation in vivo) of the same compound?
A: inhibited MC degranulation

Q: With `COC(=O)CC[C@@H](C)[C@H]1CC[C@H]2[C@@H]3CC[C@@H]4C[C@H](O)CC[C@]4(C)[C@H]3C[C@H](O)[C@]12C` [METHYL DEOXYCHOLATE] as the compound, how does the inhibition at 40 µM [3] read?
A: 78.9%

Q: How did the inhibition at 40 µM [3] turn out when `O=C(O)Cc1ccccc1Nc1c(Cl)cccc1Cl` [Benzeneacetic acid, 2-[(2,6-dichlorophenyl)amino]-, monosodium salt] was run?
A: 65.1%
